From patent US10150743B2, “Carboxylic acid compounds” (priority 2012, dated 2018)

How the values were obtained:
hERG ion channel = hERG ion channel (Homo sapiens (Human), UniProt Q12809); test: hERG Analysis - Method 1 (IONWORKS HT, CHO-hERG cells); assay type: cell-based; conditions: ~21° C.
Description: The hERG-expressing Chinese hamster ovary K1 (CHO) cells described by (Persson, Carlsson, Duker, & Jacobson, 2005) were grown to semi-confluence at 37° C. in a humidified environment (5% CO2) in F-12 Ham medium containing L-glutamine, 10% foetal calf serum (FCS) and 0.6 mg/mL hygromycin (all available from Sigma-Aldrich). Prior to use, the monolayer was washed using a pre-warmed (37° C.) 3 mL aliquot of Versene 1:5,000 (Invitrogen) After aspiration of this solution the flask was incubated at 37° C. in an incubator with a further 2 mL of Versene 1:5,000 for a period of 6 minutes. Cells were then detached from the bottom of the flask by gentle tapping and 10 mL of Dulbecco's Phosphate-Buffered Saline containing calcium (0.9 mM) and magnesium (0.5 mM) (PBS; Invitrogen) was then added to the flask and aspirated into a 15 mL centrifuge tube prior to centrifugation (50 g, for 4 mins). The resulting supernatant was discarded and the pellet gently re-suspended in 3 mL of PBS. A 0.5 mL aliquot of cell suspension was removed and the number of viable cells (based on trypan blue exclusion) was determined in an automated reader (Cedex; Innovatis) so that the cell re-suspension volume can be adjusted with PBS to give the desired final cell concentration. It is the cell concentration at this point in the assay that is quoted when referring to this parameter. CHO-Kv1.5 cells, which were used to adjust the voltage offset on IONWORKS™ HT, were maintained and prepared for use in the same way.
The principles and operation of this device have been described by (Schroeder, Neagle, Trezise, & Worley, 2003). Briefly, the technology is based on a 384-well plate (PATCHPLATE™) in which a recording was attempted in each well by using suction to position and hold a cell on a small hole separating two isolated fluid chambers. Once sealing had taken place, the solution on the underside of the PATCHPLATE™ was changed to one containing amphotericin B. This permeablises the patch of cell membrane covering the hole in each well and, in effect, allowed a perforated, whole-cell patch clamp recording to be made.
A β-test IONWORKS™ HT from Essen Instrument was used. […] (˜21° C.), as follows. The reservoir in the “Buffer” position was loaded with 4 mL of PBS and that in the “Cells” position with the CHO-hERG cell suspension described above. A 96-well plate (V-bottom, Greiner Bio-one) containing the compounds to be tested (at 3-fold above their final test concentration) was placed in the “Plate 1” position and a PATCHPLATE™ was clamped into the PATCHPLATE™ station. […]

Renca mouse tumour cells = test: Tumour growth studies in Renca, a murine syngeneic renal carcinoma tumour model; assay type: in vivo; conditions: Balb/C mice, 0.3 mg/kg once a week p.o. on days 1, 8, 15; vs 0.5% methylcellulose; FIG. 9
Description: Experiments were conducted on female mice (Balb/C genotype, at least 5 weeks old). Renca mouse tumour cells (Cancer Chemother Pharmacol. 1995; 36 (1): 7-12) were kindly provided by Dr. T. Fujioka at Department of Urology, Iwate Medical University School of Medicine. Renca mouse tumour cells (5×10^4) were implanted subcutaneously in the flank of mice on day 0. Mice were treated with either drug vehicle (0.5% methylcellulose), the compound of Example 3 (0.3 mg/kg once a week) or the compound of Example 4 (3 mg/kg once a week) administered orally (p. o.) on days 1, 8, and 15. Tumour volumes were assessed at least twice weekly by bilateral vernier caliper measurements.
Tumour growth inhibition from the start of treatment was assessed by comparison of the differences in tumour growth rate between control and the compound of Example 3 treated groups, as shown in FIG. 9.
Tumour growth inhibition from the start of treatment was assessed by comparison of the differences in tumour growth rate between control and the compound of the Example 4 treated groups, as shown in FIG. 10.

CT26 mouse tumour cells = test: Survival studies in CT26, a murine syngeneic colon carcinoma tumour model; assay type: in vivo; conditions: Balb/C mice; RT 2Gy x5 plus 30 mg/kg once a week p.o.; vs control or RT; FIG. 12
Description: Experiments were conducted on female mice (Balb/C genotype, at least 5 weeks old). CT26 mouse tumour cells (CRL-2638) were purchased from ATCC. CT26 mouse tumour cells (1×10^6) were implanted subcutaneously in the flank of mice on day 0. Mice in radiotherapy alone (RT) group and combination group were anesthetized and received radiation therapy (2Gy) at days 7, 8, 9, 10, and 11. Mice in combination group were also treated with a compound of Example 3 (30 mg/kg once a week) administered orally (p.o.) or Example 4 (5 mg/kg once a week) administered intravenously (i. v.) on days 7, 14, 22, and 27. Tumour volumes were assessed at least twice weekly by bilateral vernier caliper measurements. Survival period was determined by the time taken for tumours to reach 4 times the volume at the time of treatment.

Chain of hERG ion channel (Q12809 whole entry): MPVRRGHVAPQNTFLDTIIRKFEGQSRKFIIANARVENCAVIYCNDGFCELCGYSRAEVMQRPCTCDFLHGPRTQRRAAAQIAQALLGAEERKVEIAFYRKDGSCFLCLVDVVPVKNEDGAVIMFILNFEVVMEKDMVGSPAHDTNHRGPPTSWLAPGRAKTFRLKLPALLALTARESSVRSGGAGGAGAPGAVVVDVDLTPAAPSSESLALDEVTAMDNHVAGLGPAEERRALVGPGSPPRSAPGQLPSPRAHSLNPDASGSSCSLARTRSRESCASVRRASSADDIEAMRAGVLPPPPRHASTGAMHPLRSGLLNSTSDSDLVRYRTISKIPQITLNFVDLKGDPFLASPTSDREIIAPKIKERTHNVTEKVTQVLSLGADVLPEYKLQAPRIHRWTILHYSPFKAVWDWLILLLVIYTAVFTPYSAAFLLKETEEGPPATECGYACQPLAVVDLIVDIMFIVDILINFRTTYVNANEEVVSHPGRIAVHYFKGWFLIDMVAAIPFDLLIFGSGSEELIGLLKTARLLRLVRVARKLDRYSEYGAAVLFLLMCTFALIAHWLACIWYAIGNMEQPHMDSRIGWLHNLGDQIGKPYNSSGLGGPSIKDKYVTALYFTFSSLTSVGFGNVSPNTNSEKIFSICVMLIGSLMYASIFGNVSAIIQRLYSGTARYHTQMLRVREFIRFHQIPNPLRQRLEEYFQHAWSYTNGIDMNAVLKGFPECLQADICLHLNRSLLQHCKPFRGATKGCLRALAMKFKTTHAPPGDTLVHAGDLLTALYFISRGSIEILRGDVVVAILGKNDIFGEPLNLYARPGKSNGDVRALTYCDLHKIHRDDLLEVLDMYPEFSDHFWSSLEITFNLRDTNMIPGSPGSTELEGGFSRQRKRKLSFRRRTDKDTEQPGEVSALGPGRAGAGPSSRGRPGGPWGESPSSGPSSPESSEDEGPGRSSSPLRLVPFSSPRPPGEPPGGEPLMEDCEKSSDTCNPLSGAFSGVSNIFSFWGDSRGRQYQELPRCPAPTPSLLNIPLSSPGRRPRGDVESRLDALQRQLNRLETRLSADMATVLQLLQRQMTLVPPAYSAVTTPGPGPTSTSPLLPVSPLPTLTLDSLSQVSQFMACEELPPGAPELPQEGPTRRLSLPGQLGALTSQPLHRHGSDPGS

CCC[C@@H](CCO)Nc1nc(N)nc(C)c1Cc1ccc(CN(CC(=O)O)CC(F)F)cc1OC [Example 3, (S)-2-((4-((2-amino-4-(1-hydroxyhexan-3-ylamino)-6-methylpyrimidin-5-yl)methyl)-3-methoxybenzyl)(2,2-difluoroethyl)amino)acetic acid]
IC50 (hERG ion channel): > 33 µM
Tumour growth inhibition (Renca mouse tumour cells): inhibited tumour growth
Survival period (time for tumours to reach 4 times the volume at treatment) (CT26 mouse tumour cells): survived significantly longer
